# Entries after “also recorded” stand apart in the source; their conditions may differ. Starred links: 1 amine or outer side, 2 acyl side, 3 side chain; linkers in the order of their positions; H or OH if unused. Positions of bridges follow the written chain, without caps; N, C: chain ends. Non-standard residues stand in square brackets, D forms with d. Residues, ends and D or L forms follow the SMILES beside them. Trimesoyl = O=C(c1cc(C(=O)[*:2])cc(C(=O)[*:3])c1)[*:1]; d2Nal = N[C@H](Cc1ccc2ccccc2c1)C(=O)O; Dap = NC[C@H](N)C(=O)O
# Legend:
# E. chaffeensis [1] = experiment: morphological examination of E. chaffeensis infection of THP-1 cells by Diff-Quik staining
# E. chaffeensis [2] = experiment: E. chaffeensis infection of RF/6A cells (numbers and sizes of morulae); format: cell-based, Ehrlichia chaffeensis; settings: 10 μM, 2 days
# BECN1 binding to Etf-1 = experiment: streptavidin magnetic beads pull-down of BECN1 with biotin-Etf-1, Western blot; format: biochemical; settings: 10 µM peptide
# Etf-1 = Etf-1 (Ehrlichia chaffeensis, UniProt Q2GG12); experiment: immunofluorescence of native Etf-1 localization in E. chaffeensis-infected RF/6A cells; format: cell-based; settings: 2 days
# Sequence of Etf-1 (Q2GG12 entry or part of it): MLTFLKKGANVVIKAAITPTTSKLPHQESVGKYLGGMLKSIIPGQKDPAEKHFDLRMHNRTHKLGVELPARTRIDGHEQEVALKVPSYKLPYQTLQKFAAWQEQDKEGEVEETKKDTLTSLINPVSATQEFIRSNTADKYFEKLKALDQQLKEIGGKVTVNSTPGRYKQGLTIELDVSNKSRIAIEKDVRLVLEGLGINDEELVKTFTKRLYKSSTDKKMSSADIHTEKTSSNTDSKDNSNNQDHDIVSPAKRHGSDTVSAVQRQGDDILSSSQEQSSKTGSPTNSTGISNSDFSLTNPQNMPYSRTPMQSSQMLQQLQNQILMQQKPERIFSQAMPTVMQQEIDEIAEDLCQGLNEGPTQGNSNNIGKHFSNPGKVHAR
# Description: Fig. 7. […] RF/6A cells were seeded onto a coverglass in a 12-well plate for 1 h, and infected with E. chaffeensis (Ech) at ∼30 MOI. […] Cells were fixed in 4% PFA and labeled with rabbit anti-Etf-1 IgG and AF488-conjugated goat anti-rabbit secondary antibody in PGS for 1 h each at RT. DAPI was used to label both host-cell nuclei and Ehrlichia DNAs (pseudocolored in green), and E. chaffeensis organisms were shown as green-colored, round to pleomorphic cocci (arrowhead in panel B) that further clustered as spherical morulae. Thin arrows, E. chaffeensis-containing inclusion; open arrows, filamentous-shaped mitochondria. DeltaVision microscope. […] (D) Percentage of E. chaffeensis inclusions colocalized with Etf-1 were quantified by counting ∼20 cells per group from three independent experiments.
# For mitochondria localization analysis, RF/6A cells were seeded onto a cover glass in a 12-well plate for 3 h, then infected with E. chaffeensis at ∼30 MOI. […] Host-cell and Ehrlichial DNAs were stained with 300 nM DAPI, and fluorescence with differential interference contrast images were observed and captured with a DeltaVision deconvolution microscope (Applied Precision, Issaquah, WA, USA). Percentages of Etf-1 protein colocalization with macrocyclic peptides or E. chaffeensis inclusions were quantified by counting 10–20 cells per group from three independent experiments.
# [3] = serum stability assay (UPLC); format: in vitro ADME; settings: 25% (v/v) in DPBS; 25% human serum, 37°C, after 22 h; read-out: degradation
# Description: In comparison, the linear peptide Tat (cell-permeable peptide of HIV) was completely degraded within the first 120 min of incubation (Fig. 4B).
# Human serum was diluted to 25% (v/v) in sterile DPBS and equilibrated at 37°C for 15 min. Peptides were added to the diluted serum to a final concentration of 20 μM and incubated at 37°C with gentle mixing. At designated time points, 30 μL aliquots were withdrawn and mixed with 30 μL of 15% trichloroacetic acid in MeOH (w/v) and 30 μL of MeCN and stored at 4°C overnight to completely precipitate the serum proteins. Next, each aliquot was centrifuged (15,000g, 5 min, 4°C) and 14 μL of the supernatant was injected in an UPLC equipped with an analytical Waters Acquity UPLC BEH C18 column (1.7 μm, 2.1 mm I.D., 100 mm length) and an inline UV-Vis detector and a single quadrupole mass detector. The column was eluted with a linear gradient of 20–50% MeCN in ddH2O containing 0.1% TFA. A UV/Vis detector at 214 nm and the mass spec quantifying the ion counts corresponding to the [M + 3H]^3+ ion of the analytes were used to analyze the samples. The area under the peak of interest was obtained by integration, normalized to that of the peptide at t = 0, and plotted as a function of the incubation time to determine the serum half-life of the peptide.
# Etf-1-GFP = experiment: mitochondrial localization of ectopically expressed Etf-1-GFP in RF/6A cells; format: cell-based, Ehrlichia chaffeensis; settings: 10 μM, 2 days
# Description: For mitochondria localization analysis, RF/6A cells were seeded onto a cover glass in a 12-well plate for 3 h, then infected with E. chaffeensis at ∼30 MOI. Alternatively, cells were transfected with Etf-1-GFP or Etf-1-DsRed plasmids using Fugene HD (Promega) or by electroporation at 100 V and 1,000 µF using the Gene Pulser Xcell System (BioRad) according to the manufacturers’ instructions ([16]). […] To examine the roles of macrocyclic peptides on Etf-1 localization on E. chaffeensis inclusions, infected RF/6A cells were treated with 10 μM peptides at 3 h pi for 2 days. At 2 days pi or pt, cells were washed 3 times with PBS, then fixed in 4% PFA for 20 min. Native Etf-1 and mitochondria marker cytochrome C proteins were labeled with rabbit anti-Etf-1 IgG and mouse anti-cytochrome C, then with AF488-conjugated goat anti-rabbit and anti-mouse secondary antibodies in PGS (PBS with 0.1% gelatin and 0.1% saponin) for 1 h each at RT. Host-cell and Ehrlichial DNAs were stained with 300 nM DAPI, and fluorescence with differential interference contrast images were observed and captured with a DeltaVision deconvolution microscope (Applied Precision, Issaquah, WA, USA). Percentages of Etf-1 protein colocalization with macrocyclic peptides or E. chaffeensis inclusions were quantified by counting 10–20 cells per group from three independent experiments.
compound,measurement,setting,value
"CC(C)C[C@H]1NC(=O)[C@H](CO)NC(=O)[C@H]2CCCN2C(=O)[C@H](CCC(N)=O)NC(=O)[C@H](Cc2c[nH]cn2)NC(=O)[C@H](Cc2ccc(O)cc2)NC(=O)c2cc3cc(c2)C(=O)NC[C@H](NC1=O)C(=O)N[C@@H](Cc1ccccc1)C(=O)N[C@H](Cc1ccc2ccccc2c1)C(=O)N[C@H](CCCNC(=N)N)C(=O)N[C@@H](CCCNC(=N)N)C(=O)N[C@H](CCCNC(=N)N)C(=O)N[C@@H](CCCNC(=N)N)C(=O)N[C@H](C(N)=O)CNC3=O [Peptide B7, TMA-Tyr-His-Gln-pro-Ser-leu-Dap-Phe-nal-arg-Arg-arg-Arg-Dap] (YHQ[dP]S[dL][Dap]F[d2Nal][dR]R[dR]R[Dap]-NH2; linker N-7-14 via Trimesoyl)",E. chaffeensis infection (numbers and sizes of morulae),"E. chaffeensis [1]; THP-1 cells, Fig. S4 (with Figs. 5, S3)",significantly inhibited; also recorded: potent inhibition
same,cytotoxicity (cell lysis in treated groups),E. chaffeensis [1]; THP-1 host cells,least cytotoxicity
same,inhibition of E. chaffeensis infection,E. chaffeensis [2],significantly inhibited
same,disruption of BECN1 binding to Etf-1,BECN1 binding to Etf-1; compared to DMSO control,disrupted BECN1 binding to Etf-1
same,BECN1/Etf-1 Ratio,"BECN1 binding to Etf-1; band intensities, DMSO control set as 1, Fig. 8B",0.20
same,localization of Etf-1 to E. chaffeensis inclusions,Etf-1; 10 μM from 3 h pi,significantly inhibited the localization
same,effect on mitochondrial localization of native Etf-1,Etf-1; 10 μM,did not affect
same,"metabolised at 22 h, 20 µM",[3],< 20%
same,effect on mitochondrial localization of Etf-1-GFP,Etf-1-GFP,neither peptide B7 nor C17 affected mitochondrial localization
